Laboratory results reported in US6391911B1, “Coadministration of lucanthone and radiation for treatment of cancer” (priority 1999, dated 2002).
“Also recorded” adds a separate entry of the source. Where a name gives a salt, the structure may show the parent alone. Starred links: 1 amine or outer side, 2 acyl side, 3 side chain; linkers in the order of their positions; H or OH if unused. Positions of bridges follow the written chain, without caps; N, C: chain ends. Non-standard residues stand in square brackets, D forms with d. Residues, ends and D or L forms follow the SMILES beside them. Chains are numbered I, II in the order given. Actinocin(9to1) = Cc1c2oc3c(C)ccc(C(=O)[*:1])c3nc-2c(C(=O)[*:2])c(N)c1=O; NMeV = CN[C@H](C(=O)O)C(C)C; Sar = CNCC(=O)O

Columns and labels:
[1] = Tolerability in human clinical studies; type: in vivo
Method: Cancer patients were administered lucanthone hydrochloride in a total dose of 10 mg/Kg per day. The patients were given the drug in three divided doses in order to maintain blood and tissue levels. […] Lucanthone hydrochloride 250 mg tablets for clinical use [GRH/0/1581] were a gift of the Wellcome Foundation. Nausea and other side effects were not observed when patients received 10 mg/Kg.
Standard whole brain radiation, 30 Gy with an 8 MeV linear accelerator in ten equal doses over 2 weeks, was given in conjunction with lucanthone at 10 mg/Kg in three doses/day. Patients were assigned to radiation alone or radiation and lucanthone from a table of random numbers. Tumor sizes for each patient were determined before and after therapy independently by two neuroradiologists who had no knowledge of the protocol assignments.
Both treatments were omitted on weekends and were stopped after ten treatment days. […] No other chemotherapy was given during this time, except steroids, which is standard treatment with patients with brain metastases.

[2] = systemic chemotherapy; cited from earlier work
[3] = Tissue distribution of ^3H lucanthone in tumor-bearing mice; type: in vivo, C3H-HeHa mice
Method: Ten six-week-old 18-20 gram female C3H-HeHa mice obtained from West Seneca Laboratories (West Seneca, N.Y.) were injected subcutaneously in the right nipple line with 1.4×10^6 viable C3H-BA mammary adenocarcinoma cells. With such inocula, 1-2-mm tumors were detectable within 3 days. If allowed to grow, they killed the mice in 36-38 days. This highly invasive tumor could grow rapidly from inocula as low as 10^4 cells.
In order to minimize the influence of tumor size on drug distribution, drug was administered at various times during the course of tumor growth. Each day, from the seventh to eleventh day after injection, two mice were injected intraperitoneally with 1.27 mg^3 H lucanthone methanesulfonate. Lucanthone methanesulfonate, after being labeled by tritium exchange of hydrogen, was 96%-99% pure by thin layer chromatography. Before injection in mice, the specific radioactivity of ^3H lucanthone, originally 135 MBq/mg, was reduced to 67.5 MBq/mg by dilution with unlabeled lucanthone methanesulfonate. The total dose of radioactivity was 8.74 MBq (236 μCi) in 0.44 ml. All mice were sacrificed on the twelfth day, at which time the tumors were all approximately the same size, 7-12 mm in greatest diameter.
Distribution of tritium-labeled material in tissues represents lucanthone and its metabolites. Following sacrifice by cervical dislocation, the wet weight of samples of various organ or tumor tissue was determined immediately. Samples (about 50 mg each) were placed in glass scintillation vials with metal foil-lined caps. An alkaline tissue solubilizer, Protosol (DuPont—NEN), was added for digestion; radioactivity was determined by liquid scintillation techniques, as recommended by the manufacturer. Quench corrections were made for each sample to avoid interference from colored substances in individual samples. Hair was shaved from the skin samples to avoid its contribution to the weight of the sample.

[4] = reason for use as imaging control; cited from earlier work
[5] = Gamma camera imaging of radiolabeled rat models; type: in vivo; settings: rats; intravenous radiotracer; pinhole collimator
Method: Rats were injected with ^125I-labeled lucanthone and ^99mTc-pertechnetate. Lucanthone hydrochloride used for ^125I labeling was 97.5% pure by HPLC mass spectroscopy (Sterling Winthrop Research Institute, R009CJ). ^125I labeled lucanthone was prepared by a modification of the chloramine T method, to be described in detail in a separate publication [Moran JK, Li Y, Deng HF, Labeling and biodistribution of lucanthone (in preparation)]. The product identity was confirmed by thin layer chromatography. ^99mTc-pertechnetate was obtained from a conventional laboratory supplier. The image acquisitions were performed using a Picker Dyna Camera 4C using Nuclear MAC imaging software running on a Power MAC 8100/80 AV computer. Images were obtained using a pinhole collimator with a collimator to rat distance of 6.5 cm.
Each animal was imaged using ^99mTc-pertechnetate (3.7 MBq). […] Therefore, a photopenic area in the image corresponds to the location of the rat brain.
Twenty-four hours following administration of ^99mTc-pertechnetate, ^125I lucanthone was administered to each test animal. Images were acquired in the left lateral position every 10 min after intravenous administration of 1.1 MBq of ^125I lucanthone.

Q: Which “Tolerability of total dose” value ([1]; cancer patients, 10 mg/Kg per day in three divided doses) does the source give for `CCN(CC)CCNc1ccc(C)c2sc3ccccc3c(=O)c12` [lucanthone hydrochloride] here?
A: well tolerated

Q: What about the “Nausea and other side effects” value ([1]; patients received 10 mg/Kg) of the same compound?
A: not observed

Q: Which “Crossing of the blood-brain barrier” value [2] does the source give for `COc1cc([C@@H]2c3cc4c(cc3[C@@H](O[C@@H]3O[C@@H]5CO[C@@H](C)O[C@H]5[C@H](O)[C@H]3O)[C@H]3COC(=O)[C@H]23)OCO4)cc(OC)c1O` [etoposide] here?
A: fail to cross the blood-brain barrier in useful amounts; also recorded: crosses the blood-brain barrier poorly

Q: Which results are given for `CCN(CC)CCNc1ccc(C)c2sc3ccccc3c(=O)c12` [^3H lucanthone]?
A: ^3H label in tumor tissue relative to skin and muscle ([3]; first and second days following intraperitoneal drug injection, C3H-BA mammary adenocarcinoma): Enrichment of the ^3H label was detected in tumor tissue relative to skin and muscle; ^3H lucanthone uptake and removal in brain, lung and spleen ([3]; intraperitoneal injection): little difference; ^3H label concentration in livers and kidneys compared with tumor ([3]; intraperitoneal injection, principal excretory organs): higher concentrations were found than in the tumor

Q: Which “Crossing of the blood-brain barrier (known property)” value [4] does the source give for ^99mTc-pertechnetate here?
A: known not to cross the blood-brain barrier

Q: What about the “Photopenic area at the location of the brain in gamma camera scans” value [5] of the same compound?
A: show a photopenic area in the animal's head

Q: Which “Crossing of the blood-brain barrier” value [2] does the source give for `Cc1c2oc3c(C)ccc(C(=O)N[C@@H]4C(=O)N[C@H](C(C)C)C(=O)N5CCC[C@H]5C(=O)N(C)CC(=O)N(C)[C@@H](C(C)C)C(=O)O[C@@H]4C)c3nc-2c(C(=O)N[C@@H]2C(=O)N[C@H](C(C)C)C(=O)N3CCC[C@H]3C(=O)N(C)CC(=O)N(C)[C@@H](C(C)C)C(=O)O[C@@H]2C)c(N)c1=O` [actinomycin D] (I: T[dV]P[Sar][NMeV] / II: T[dV]P[Sar][NMeV]; ester I:1-I:C, II:1-II:C; linker I:N-II:N via Actinocin(9to1)) here?
A: fail to cross the blood-brain barrier in useful amounts
